Values quoted from earlier work in patent US20080233128A1, “Treatment of Viral Infections” (priority 2006, published 2008).

Test system: circulating T-cells

Question: Which results are given for alemtuzumab?
Answer: time to full recovery of T-cells (after a single dose, FIG. 1): ≥ 3 months; T-cell depletion (killing of circulating T-cells) (single dose, FIG. 1, mean ALC as a function of time): kill all circulating T-cells
